US20130059805A1, “COMPOSITION COMPRISING AN AMORPHOUS NON-CRYSTALLINE GLASS FORM OF AZITHROMYCIN” (North-West University, priority 2009, published 2013)
Converted amounts (≈) assume the structure as drawn. Where two headings read alike, the source gives them in different places. Each block holds one compound with its values, some of them ahead of it.

Legend:
[1] = Solubility in four media (excess solid, 37 degrees Celsius, 24 h, HPLC assay); assay type: physicochemical; conditions: for solubility at 24 h: 37 °C, thermodynamic from solid
Method: In further analysis of the amorphous non-crystalline glass form (Form-II) of azithromycin, each of five replicate test tubes were filled with an excess of amorphous non-crystalline glass form (Form-II) of azithromycin and 10 ml of solubility medium. The process was performed with each of the following mediums: 0.1 N hydrochloric acid (pH 1), acetate buffer (pH 4.5), phosphate buffer (pH 6.8) and distilled water. This method was also used for testing the prior art azithromycin dihydrate.
The test tubes were then fixed to a rotating axis (54 rpm) and submerged in a water bath at 37 degrees Celsius±2 degrees Celsius for twenty-four hours. The contents of the test tubes were filtered through a 0.45 μm filter and the respective filtrates were subsequently diluted.
The concentrations of the filtrates were determined by HPLC (high performance liquid chromatography) assay. The HPLC assay was performed utilising a mobile phase (600:400) consisting of 8.7 g/L potassium dihydrogen phosphate buffer (pH 4.5) and acetonitrile. A Luna C18 250 mm×4.6 mm column was used with a flow rate of 0.5 mL/min and a wavelength of 210 nm. Validation of this method provided a linear regression r^2 of 0.9999.

[2] = Structural stability study at 40° C. and 75% relative humidity (XRPD, DSC, thermal microscopy); assay type: physicochemical; conditions: 4 week testing period
Source text: FIG. 5: is a characteristic XRPD (x-ray powder diffraction pattern) of amorphous non-crystalline glass form (Form-II) of azithromycin taken over a period of time wherein 0 is at time of preparation, 1 is week 1, 2 is week 2, 3 is week 3 and 4 is week 4 (Vertical axis: intensity (Lin (counts)); Horizontal axis: 2 Theta (degrees));
FIG. 12: is a DSC (differential scanning calorimetry) trace of amorphous non-crystalline glass form (Form-II) of azithromycin, taken over a period of time, according to one embodiment of the invention wherein 0 is at time of preparation, 1 is week 1, 2 is week 2, 3 is week 3 and 4 is week 4 (Vertical axis: Heat flow (mW); Horizontal axis: temperature (degrees Celsius));
FIG. 13: is a thermal microscopy image (at 25 degrees Celsius) of amorphous non-crystalline glass form (Form-II) of azithromycin taken in the fourth week after preparation according to one embodiment of the invention; and […]

[3] = background statement; cited from earlier work
[4] = 0.1 N HCl; cited from earlier work
[5] = oral; cited from earlier work

solubility in 0.1 N HCl ([1]; 0.1 N HCl (pH 1), 37 degrees Celsius): 45.703 ± 0.917 mg/mL (≈ 61 mM)
solubility in acetate buffer (pH 4.5) ([1]; acetate buffer pH 4.5, 37 degrees Celsius): 18.045±0.485 mg/mL
solubility in distilled water ([1]; distilled water, 37 degrees Celsius): 1.357 ± 0.233 mg/mL (≈ 1.81 mM)
solubility in phosphate buffer (pH 6.8) ([1]; phosphate buffer pH 6.8, 37 degrees Celsius): 10.968±0.182 mg/mL
structural stability (solid form) [2]: structurally stable
SMILES: CC[C@H]1OC(=O)[C@H](C)[C@@H](O[C@H]2C[C@@](C)(OC)[C@@H](O)[C@H](C)O2)[C@H](C)[C@@H](O[C@@H]2O[C@H](C)C[C@H](N(C)C)[C@H]2O)[C@](C)(O)C[C@@H](C)CN(C)[C@H](C)[C@@H](O)[C@]1(C)O

solubility at 24 h ([1]; 0.1 N hydrochloric acid, simulated gastric fluid, 0.1 N HCl (pH 1), 37 degrees Celsius, read-out: solubility in 0.1 N HCl): 40.81 ± 0.368 mg/mL
solubility at 24 h ([1]; aqueous buffer, acetate buffer pH 4.5, 37 degrees Celsius, read-out: solubility in acetate buffer (pH 4.5)): 17.97 ± 0.113 mg/mL
solubility at 24 h ([1]; aqueous buffer, phosphate buffer pH 6.8, 37 degrees Celsius, read-out: solubility in phosphate buffer (pH 6.8)): 8.442 ± 0.069 mg/mL
solubility at 24 h ([1]; distilled water, 37 degrees Celsius, read-out: solubility in distilled water): 0.148 ± 0.028 mg/mL
SMILES: CC[C@H]1OC(=O)[C@H](C)[C@@H](O[C@H]2C[C@@](C)(OC)[C@@H](O)[C@H](C)O2)[C@H](C)[C@@H](O[C@@H]2O[C@H](C)C[C@H](N(C)C)[C@H]2O)[C@](C)(O)C[C@@H](C)CN(C)[C@H](C)[C@@H](O)[C@]1(C)O [azithromycin raw material (dihydrate), azithromycin dihydrate]
water solubility (in words) [3]: poorly soluble in water

SMILES: CC[C@H]1OC(=O)[C@H](C)[C@@H](O[C@H]2C[C@@](C)(OC)[C@@H](O)[C@H](C)O2)[C@H](C)[C@@H](O[C@@H]2O[C@H](C)C[C@H](N(C)C)[C@H]2O)[C@](C)(O)C[C@@H](C)CN(C)[C@H](C)[C@@H](O)[C@]1(C)O [azithromycin, (2R,3S,4R,5R,8R,10R,11R,12S,13S,14R)-2-ethyl-3,4,10-trihydroxy-3,5,6,8,10,12,14-heptamethyl-15-oxo-11-{[3,4,6-trideoxy-3-(dimethylamino)-β-D-xylo-hexopyranosyl]oxy}-1-oxa-6-azacyclopentadec-13-yl 2,6-dideoxy-3-C-methyl-3-O-methyl-α-L-ribo-hexopyranoside]
acid stability [4]: acid-stable
bioavailability (share of an orally administered dose reaching systemic circulation) [5]: 38%
